Laboratory results from patent US20180319753A1, “MICROBIOCIDAL OXADIAZOLE DERIVATIVES” (SYNGENTA PARTICIPATIONS AG, priority 2015, published 2018).

Tests used:
[1] = test system: Puccinia recondita f. Sp. Tritici; assay: Puccinia recondita f. sp. tritici / wheat / leaf disc preventative (brown rust); type: in vivo; settings: foliar, 200 ppm in the applied formulation, wheat leaf segments cv. Kanzler, inoculated 1 day after application, assessed 7 to 9 days after application, read-out: disease control compared to untreated control leaf disks
Method: Leaf disks or leaf segments of various plant species are cut from plants grown in a greenhouse. The cut leaf disks or segments are placed in multiwell plates (24-well format) onto water agar. The leaf disks are sprayed with a test solution before (preventative) or after (curative) inoculation. Compounds to be tested are prepared as DMSO solutions (max. 10 mg/ml) which are diluted to the appropriate concentration with 0.025% Tween20 just before spraying. The inoculated leaf disks or segments are incubated under defined conditions (temperature, relative humidity, light, etc.) according to the respective test system. A single evaluation of disease level is carried out 3 to 14 days after inoculation, depending on the pathosystem. Percent disease control relative to the untreated check leaf disks or segments is then calculated. Wheat leaf segments cv. Kanzler were placed on agar in multiwell plates (24-well format) and sprayed with the formulated test compound diluted in water. The leaf disks were inoculated with a spore suspension of the fungus 1 day after application. The inoculated leaf segments were incubated at 19° C. and 75% relative humidity (rh) under a light regime of 12 hours light/12 hours darkness in a climate cabinet and the activity of a compound was assessed as percent disease control compared to untreated when an appropriate level of disease damage appears in untreated check leaf segments (7 to 9 days after application). The following compounds at 200 ppm in the applied formulation give at least 80% disease control in this test when compared to untreated control leaf disks under the same conditions, which show extensive disease development.

[2] = test system: Puccinia recondita f. Sp. Tritici; assay: Puccinia recondita f. sp. tritici / wheat / leaf disc curative (brown rust); type: in vivo; settings: foliar, 200 ppm in the applied formulation, wheat leaf segments cv. Kanzler, applied 1 day after inoculation, assessed 6 to 8 days after application, read-out: disease control compared to untreated control leaf disks
Method: (§1) Leaf disks or leaf segments of various plant species are cut from plants grown in a greenhouse. The cut leaf disks or segments are placed in multiwell plates (24-well format) onto water agar. The leaf disks are sprayed with a test solution before (preventative) or after (curative) inoculation. Compounds to be tested are prepared as DMSO solutions (max. 10 mg/ml) which are diluted to the appropriate concentration with 0.025% Tween20 just before spraying. The inoculated leaf disks or segments are incubated under defined conditions (temperature, relative humidity, light, etc.) according to the respective test system. A single evaluation of disease level is carried out 3 to 14 days after inoculation, depending on the pathosystem. Percent disease control relative to the untreated check leaf disks or segments is then calculated.
Wheat leaf segments cv. Kanzler are placed on agar in multiwell plates (24-well format). The leaf segments are then inoculated with a spore suspension of the fungus. Plates were stored in darkness at 19° C. and 75% relative humidity. The formulated test compound diluted in water was applied 1 day after inoculation. The leaf segments were incubated at 19° C. and 75% relative humidity under a light regime of 12 hours light/12 hours darkness in a climate cabinet and the activity of a compound was assessed as percent disease control compared to untreated when an appropriate level of disease damage appears in untreated check leaf segments (6 to 8 days after application).
(§2) The following compounds at 200 ppm in the applied formulation give at least 80% disease control in this test when compared to untreated control leaf disks under the same conditions, which show extensive disease development.

Phakopsora pachyrhizi = Phakopsora pachyrhizi / soybean / leaf disc preventative (Asian soybean rust); type: in vivo; settings: foliar, 200 ppm in the applied formulation, soybean leaf disks, inoculated one day after application, assessed 12 to 14 days after application, read-out: disease control compared to untreated control leaf disks
Method: as §1
Soybean leaf disks are placed on water agar in multiwell plates (24-well format) and sprayed with the formulated test compound diluted in water. One day after application leaf discs are inoculated by spraying a spore suspension on the lower leaf surface. After an incubation period in a climate cabinet of 24-36 hours in darkness at 20° C. and 75% rh leaf disc are kept at 20° C. with 12 h light/day and 75% rh. The activity of a compound is assessed as percent disease control compared to untreated when an appropriate level of disease damage appears in untreated check leaf disks (12 to 14 days after application).
as §2

[3] = test system: Glomerella lagenarium (Colletotrichum lagenarium); assay: Glomerella lagenarium (Colletotrichum lagenarium) liquid culture / cucumber / preventative (anthracnose); type: cell-based; settings: Colletotrichum orbiculare; 20 ppm in the applied formulation; liquid culture in PDB, 24° C.; 3 to 4 days after application; read-out: disease control compared to untreated control (inhibition of growth measured photometrically)
Method: Mycelia fragments or conidia suspensions of a fungus prepared either freshly from liquid cultures of the fungus or from cryogenic storage, are directly mixed into nutrient broth. DMSO solutions of the test compound (max. 10 mg/ml) are diluted with 0.025% Tween20 by a factor of 50 and 10 μl of this solution is pipetted into a microtiter plate (96-well format). The nutrient broth containing the fungal spores/mycelia fragments is then added to give an end concentration of the tested compound. The test plates are incubated in the dark at 24° C. and 96% relative humidity. The inhibition of fungal growth is determined photometrically after 2 to 7 days, depending on the pathosystem, and percent antifungal activity relative to the untreated check is calculated.
Conidia of the fungus from cryogenic storage are directly mixed into nutrient broth (PDB—potato dextrose broth). After placing a (DMSO) solution of test compound into a microtiter plate (96-well format), the nutrient broth containing the fungal spores is added. The test plates are incubated at 24° C. and the inhibition of growth is measured photometrically 3 to 4 days after application.
The following compounds at 20 ppm in the applied formulation give at least 80% disease control in this test when compared to untreated control under the same conditions, which show extensive disease development.

Structure (SMILES) | melting point [°C] | pest or weed control at 200 ppm [1] [%] | pest or weed control at 200 ppm [2] [%] | pest or weed control at 200 ppm (Phakopsora pachyrhizi) [%] | inhibition at 20 ppm [3] [%]
[O-][S+](Cc1c(F)cc(-c2noc(C(F)(F)F)n2)cc1F)c1ccccc1 (stereo not drawn) [Compound 2.32, 3-[4-(benzenesulfinylmethyl)-3,5-difluoro-phenyl]-5-(trifluoromethyl)-1,2,4-oxadiazole] | 120 to 125 | – | ≥ 80 | ≥ 80 | ≥ 80
Fc1cccc(F)c1Sc1ccc(-c2noc(C(F)(F)F)n2)cc1 [Compound 1.12, 3-[4-(2,6-difluorophenyl)sulfanylphenyl]-5-(trifluoromethyl)-1,2,4-oxadiazole] | 75 to 85 | – | ≥ 80 | ≥ 80 | ≥ 80
CC(C)(C)[S+]([O-])c1ccc(-c2noc(C(F)(F)F)n2)cc1 (stereo not drawn) [Compound 2.19, 3-(4-tert-butylsulfinylphenyl)-5-(trifluoromethyl)-1,2,4-oxadiazole] | – | ≥ 80 | ≥ 80 | ≥ 80 | ≥ 80
FC(F)(F)c1nc(-c2ccc(SCCc3ccccc3)cc2)no1 [Compound 1.5, 3-[4-(2-phenylethylsulfanyl)phenyl]-5-(trifluoromethyl)-1,2,4-oxadiazole] | – | ≥ 80 | ≥ 80 | ≥ 80 | ≥ 80
FC(F)(F)c1nc(-c2ccc(CSc3ccccc3)nc2)no1 [Compound 1.23, 3-[6-(phenylsulfanylmethyl)-3-pyridyl]-5-(trifluoromethyl)-1,2,4-oxadiazole] | 71 to 78 | ≥ 80 | ≥ 80 | – | ≥ 80
FC(F)(F)c1nc(-c2ccc(Sc3ccccc3)nc2)no1 [Compound 1.7, 3-(6-phenylsulfanyl-3-pyridyl)-5-(trifluoromethyl)-1,2,4-oxadiazole] | 124 to 129 | – | ≥ 80 | ≥ 80 | ≥ 80
O=S(=O)(c1ccc(-c2noc(C(F)(F)F)n2)cc1)c1cccc(F)c1 [Compound 3.14, 3-[4-(3-fluorophenyl)sulfonylphenyl]-5-(trifluoromethyl)-1,2,4-oxadiazole] | 136 to 143 | ≥ 80 | – | ≥ 80 | ≥ 80
[O-][S+](c1ccc(-c2noc(C(F)(F)F)n2)cc1)C1CCCC1 (stereo not drawn) [Compound 2.23, 3-(4-cyclopentylsulfinylphenyl)-5-(trifluoromethyl)-1,2,4-oxadiazole] | – | ≥ 80 | ≥ 80 | ≥ 80 | ≥ 80

Continued, in another order:

melting point [°C] | Structure (SMILES) | pest or weed control at 200 ppm [1] [%] | pest or weed control at 200 ppm [2] [%] | pest or weed control at 200 ppm (Phakopsora pachyrhizi) [%] | inhibition at 20 ppm [3] [%]
35 to 38 | Fc1ccccc1Sc1ccc(-c2noc(C(F)(F)F)n2)cc1 [Compound 1.14, 3-[4-(2-fluorophenyl)sulfanylphenyl]-5-(trifluoromethyl)-1,2,4-oxadiazole] | ≥ 80 | ≥ 80 | ≥ 80 | –
91 to 97 | [O-][S+](c1ccccc1)c1ccc(-c2noc(C(F)(F)F)n2)cn1 (stereo not drawn) [Compound 2.10, 3-[6-(benzenesulfinyl)-3-pyridyl]-5-(trifluoromethyl)-1,2,4-oxadiazole] | ≥ 80 | ≥ 80 | ≥ 80 | ≥ 80
92 to 95 | [O-][S+](c1ccc(-c2noc(C(F)(F)F)n2)cn1)c1ccccc1F (stereo not drawn) [Compound 2.26, 3-[6-(2-fluorophenyl)sulfinyl-3-pyridyl]-5-(trifluoromethyl)-1,2,4-oxadiazole] | ≥ 80 | ≥ 80 | – | ≥ 80
56 to 61 | Fc1ccccc1SCc1ccc(-c2noc(C(F)(F)F)n2)cc1 [Compound 1.15, 3-[4-[(2-fluorophenyl)sulfanylmethyl]phenyl]-5-(trifluoromethyl)-1,2,4-oxadiazole] | – | ≥ 80 | ≥ 80 | –
100 to 103 | Cc1ccccc1[S+]([O-])c1ccc(-c2noc(C(F)(F)F)n2)cc1 (stereo not drawn) [Compound 2.24, 3-[4-(o-tolylsulfinyl)phenyl]-5-(trifluoromethyl)-1,2,4-oxadiazole] | ≥ 80 | ≥ 80 | – | ≥ 80
94 to 99 | [O-][S+](c1ccc(F)cc1)c1ccc(-c2noc(C(F)(F)F)n2)cc1 (stereo not drawn) [Compound 2.13, 3-[4-(4-fluorophenyl)sulfinylphenyl]-5-(trifluoromethyl)-1,2,4-oxadiazole] | ≥ 80 | ≥ 80 | ≥ 80 | –
38 to 43 | CCC(C)C[S+]([O-])c1ccc(-c2noc(C(F)(F)F)n2)cc1 (stereo not drawn) [Compound 2.22, 3-[4-(2-methylbutylsulfinyl)phenyl]-5-(trifluoromethyl)-1,2,4-oxadiazole] | – | ≥ 80 | ≥ 80 | ≥ 80
163 to 167 | [O-][S+](Cc1ccc(-c2noc(C(F)(F)F)n2)c(F)c1F)c1ccccc1 (stereo not drawn) [Compound 2.31, 3-[4-(benzenesulfinylmethyl)-2,3-difluoro-phenyl]-5-(trifluoromethyl)-1,2,4-oxadiazole] | ≥ 80 | – | ≥ 80 | ≥ 80
105 to 115 | COc1ccccc1[S+]([O-])c1ccc(-c2noc(C(F)(F)F)n2)cc1 (stereo not drawn) [Compound 2.15, 3-[4-(2-methoxyphenyl)sulfinyl-phenyl]-5-(trifluoromethyl)-1,2,4-oxadiazole] | ≥ 80 | ≥ 80 | ≥ 80 | –
108 to 116 | COc1ccc(S(=O)(=O)c2ccc(-c3noc(C(F)(F)F)n3)cc2)cc1 [Compound 3.2, 3-[4-(4-methoxyphenyl)sulfonylphenyl]-5-(trifluoromethyl)-1,2,4-oxadiazole] | ≥ 80 | – | ≥ 80 | ≥ 80
